Reference: publication PMC12555108, “In‐vitro Assessment of BCRP‐Mediated Efflux of Antiseizure Medications in Human Blood‐Brain Barrier Cell Model” (Journal of Biochemical and Molecular Toxicology, 2025)

Experiments:
[1] = target: T1, BCRP (Homo sapiens, UniProt Q9UNQ0); assay: bidirectional transport assay across hCMEC/D3 cell monolayer with or without Ko143; conditions: for transport by BCRP (conclusion of bidirectional transport assay): ER ≥ 1.5 and significantly reduced by Ko143
T1 sequence (Q9UNQ0 1-655): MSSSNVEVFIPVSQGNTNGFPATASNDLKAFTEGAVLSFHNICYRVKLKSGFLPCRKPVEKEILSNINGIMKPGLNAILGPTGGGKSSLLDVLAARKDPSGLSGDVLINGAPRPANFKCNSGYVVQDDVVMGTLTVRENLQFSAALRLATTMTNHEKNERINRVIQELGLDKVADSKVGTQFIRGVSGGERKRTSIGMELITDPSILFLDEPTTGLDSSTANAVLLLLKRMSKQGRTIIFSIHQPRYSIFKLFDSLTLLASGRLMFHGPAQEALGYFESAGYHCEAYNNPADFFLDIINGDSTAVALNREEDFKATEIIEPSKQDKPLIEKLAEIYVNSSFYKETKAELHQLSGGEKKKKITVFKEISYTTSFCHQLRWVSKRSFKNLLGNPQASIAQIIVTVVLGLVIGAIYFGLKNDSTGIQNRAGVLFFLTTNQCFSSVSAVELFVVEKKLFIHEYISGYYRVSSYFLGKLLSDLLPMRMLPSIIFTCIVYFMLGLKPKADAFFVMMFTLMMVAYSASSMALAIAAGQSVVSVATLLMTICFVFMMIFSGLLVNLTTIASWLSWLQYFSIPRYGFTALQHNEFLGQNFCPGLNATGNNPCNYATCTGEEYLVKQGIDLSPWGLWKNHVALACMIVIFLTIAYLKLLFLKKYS
Procedure: For transport assays, hCMEC/D3 cells were seeded on collagen type I‐coated Transwell inserts (polycarbonate 12‐well, pore size […]) (cat. no. CLS3460; Corning, NY, USA) at 80% confluency and cultured as described in section 2.5. In brief, the drug was dissolved in Hanks’ balanced salt solution supplemented with 10 mM HEPES, 1 mM Na‐Pyruvate, pH 7.4 at 37°C (transport buffer). Initially, both sides of the chamber were washed with 1X PBS and the assay was performed with pre‐warmed transport buffer. 0.5 ml or 1.5 ml of the drug solution, with or without BCRP‐specific inhibitor Ko143 (1 μM) was added to either the apical side or basolateral side of the monolayer, respectively, and fresh transport buffer was added to the opposite side. Aliquots of 100 μl samples were taken from the opposite sides every 30 min for 2 h, and the same amount of fresh transport buffer was added to the same chamber after each sampling. […] Concentrations of ASMs were evaluated by HPLC or LC/MS. Apparent permeability (Papp) is defined as the transport rate of ASM and efflux ratio (ER) was calculated as the ratio of Papp in the basolateral‐to‐apical (Papp(B→A)) direction to the Papp in the apical‐to‐basolateral (Papp(A→B)) direction. The samples were stored at −20°C until analysis. […] Fluorescence detection of lucifer yellow (excitation at 430 nm, and emission at 535 nm) was carried out with Infinite 200 PRO NanoQuant (Tecan, Zurich, Switzerland). […] All transport assays were performed in triplicate.
The calculation for apparent permeability coefficient, Papp, was performed as described before. Papp=dQr/dt/A×C0 where dQr/dt is the cumulative amount in the receiver side vs time in μM/s
A is the area of the cell monolayer
C0 is the initial concentration of the dosing solution (μM).
And, Efflux ratio=Papp(B−to−A)/Papp(A−to−B)

[2] = target: T1, BCRP; assay: competitive substrate efflux assay (BODIPY-prazosin accumulation) in hCMEC/D3 cells; format: cell-based
Procedure: The potential of ASMs to compete with a known fluorescent substrate of BCRP, BPZ in hCMEC/D3 cells was examined using a competitive substrate efflux assay that has previously been used in various studies. The interaction of CBZ, DCLB, OXC, TPM, and LEVI with BCRP was evaluated. Initially, hCMEC/D3 were seeded in 12‐well plates (cat. no. 150628, Nunc, Thermo Fisher Scientific, MA, USA) at 70‐80% confluency for 24 h. In this study, Ko143 was used for BCRP inhibition. The cultured cells were incubated at 37°C for half an hour in media containing BPZ with either the test ASMs or Ko143. Cells were washed with chilled 1X PBS three times and again incubated at 37°C for 1 h 30 min in BPZ‐free media with or without Ko143. Cells were washed three times with ice‐cold 1X PBS to terminate the assay. Cell lysis was performed by adding 1% triton X‐100, followed by incubating the cells for 15 min at 37°C. 20 µl of cell lysate was placed in 384‐well black assay plates for fluorescence detection (excitation at 488 nm; emission at 530 nm) to Infinite 200 PRO NanoQuant (Tecan, Zurich, Switzerland). The rest of the cell lysate was used for determining protein levels using the BCA protein estimation method to normalize the observed fluorescence intensity with total protein yield. The data were shown as a fold increment in intracellular fluorescence of BPZ relative to the control.

[3] = target: T1, BCRP; assay: vanadate-sensitive BCRP ATPase assay (membrane vesicles from MCF-7 cells overexpressing BCRP); format: biochemical; design: host or cells: MCF-7 cells overexpressing BCRP; conditions: 40 µM
Procedure: To assess the interaction between ASMs and BCRP, a vanadate‐sensitive ATPase assay was performed as per the manufacturer's instructions manual. […] After 10 min, 1x developer solution was added and kept for 2 min. To stop the reaction, 100 µL blocker solution was added and incubated for 30 min. at 37°C. The optical densities were measured at 620 nm using an Infinite 200 PRO NanoQuant (Tecan, Zurich, Switzerland) plate reader. 1 μM Ko143 was used as a positive control for BCRP inhibition. Ko143 was used at a concentration that is known to inhibit BCRP efficiently. The results were expressed as vanadate‐sensitive ATPase activity that is based on the difference in inorganic phosphate released between samples with and without vanadate. This will evaluate the ability of the test ASM to stimulate BCRP's baseline ATPase activity.

[4] = design: method as in Johannessen, 2004; Patsalos, 2008; Lee, 2016; conditions: patients with epilepsy; ref Johannessen, 2004; Patsalos, 2008; Lee, 2016; cited from earlier work
[5] = target: T1, BCRP; design: host or cells: MCF-7 cells overexpressing BCRP; conditions: previous study; cited from earlier work

## O=C1c2c(O)ccc(O)c2C(=O)c2c(NCCNCCO)ccc(NCCNCCO)c21 [MXR, mitoxantrone]
[1]; human, pH 7.4
  Papp A→B at 2 h, 5 μM: 5.1 ×10⁻⁶ cm/s
  Papp B→A at 2 h, 5 μM: 12.7 ×10⁻⁶ cm/s
[1]; human, pH 7.4, with Ko143 1 μM
  Papp A→B at 2 h, 5 μM: 10.2 ×10⁻⁶ cm/s
  Papp B→A at 2 h, 5 μM: 10.6 ×10⁻⁶ cm/s

## NC(=O)N1c2ccccc2CC(=O)c2ccccc21 [OXC, oxcarbazepine]
[2]; […] and […] µM
  BPZ accumulation in hCMEC/D3 cells: significantly increased
[1]; hCMEC/D3 monolayer
  transport by BCRP (conclusion of bidirectional transport assay): transports
[1]; human, pH 7.4
  Papp A→B at 2 h, 25 µM: 2.64 ×10⁻⁶ cm/s
  Papp A→B at 2 h, […] µM: 16.5 ×10⁻⁶ cm/s
  Papp B→A at 2 h, 25 µM: 4.72 ×10⁻⁶ cm/s
  Papp B→A at 2 h, […] µM: 39.4 ×10⁻⁶ cm/s
[1]; human, pH 7.4, with Ko143 1 μM
  Papp A→B at 2 h, 25 µM: 3.21 ×10⁻⁶ cm/s
  Papp A→B at 2 h, […] µM: 140 ×10⁻⁶ cm/s
  Papp B→A at 2 h, 25 µM: 3.59 ×10⁻⁶ cm/s
  Papp B→A at 2 h, […] µM: 169 ×10⁻⁶ cm/s
[3]
  stimulation of BCRP ATPase activity (activation assay): significantly stimulated

## CC1(C)O[C@@H]2[C@@H](CO[C@@]3(COS(N)(=O)=O)OC(C)(C)O[C@@H]23)O1 [TPM, topiramate]
[2]
  intracellular accumulation of BPZ in hCMEC/D3 cells: did not affect
[1]; hCMEC/D3 monolayer
  transport by BCRP (conclusion of bidirectional transport assay): not
[1]; human, pH 7.4
  Papp A→B at 2 h, 15 µM: 0.71 ×10⁻⁶ cm/s
  Papp A→B at 2 h, 60 µM: 20 ×10⁻⁶ cm/s
  Papp B→A at 2 h, 15 µM: 0.71 ×10⁻⁶ cm/s
  Papp B→A at 2 h, 60 µM: 25.5 ×10⁻⁶ cm/s
[1]; human, pH 7.4, Efflux ratio (ER) without inhibitor, at all the tested concentrations, hCMEC/D3 monolayer
  efflux ratio at 2 h: < 1.5
[1]; human, pH 7.4, Efflux ratio (ER), hCMEC/D3 without inhibitor Ko143, 15 μM, hCMEC/D3 monolayer
  efflux ratio at 2 h, 15 µM: 1.06
[1]; human, pH 7.4, Efflux ratio (ER), hCMEC/D3 without inhibitor Ko143, 60 μM, hCMEC/D3 monolayer
  efflux ratio at 2 h, 60 µM: 1.17
[1]; human, pH 7.4, with Ko143 1 μM
  Papp A→B at 2 h, 15 µM: 12.3 ×10⁻⁶ cm/s
  Papp A→B at 2 h, 60 µM: 159 ×10⁻⁶ cm/s
  Papp B→A at 2 h, 15 µM: 14.2 ×10⁻⁶ cm/s
  Papp B→A at 2 h, 60 µM: 190 ×10⁻⁶ cm/s
[1]; human, pH 7.4, with Ko143 1 µM, Efflux ratio (ER), hCMEC/D3 with inhibitor Ko143, 15 μM, hCMEC/D3 monolayer, 1 μM Ko143
  efflux ratio at 2 h, 15 µM: 1.16
[1]; human, pH 7.4, with Ko143 1 µM, Efflux ratio (ER), hCMEC/D3 with inhibitor Ko143, 60 μM, hCMEC/D3 monolayer, 1 μM Ko143
  efflux ratio at 2 h, 60 µM: 1.13
[4]
  Therapeutic plasma concentration range: 15 to 60 µM
[5]
  stimulation of BCRP ATPase activity: no significant stimulation
